Assay results taken from patent US8575360B2, “Derivatives of 6,7-dihydro-5H-imidazo[1,2-a]imidazole-3-carboxylic acid amides” (Boehringer Ingelheim International GmbH, priority 2009, dated 2013).

The molecules below were run against T1, LFA-1 (CD18/CD11a) binding to ICAM-1 (Homo sapiens, UniProt P05107+P20701) (assay: LFA-1/Biotin-sICAM-1 AlphaScreen assay: inhibition of LFA-1 binding to ICAM-1). Details: 37° C. 90 minutes, highest compound concentration 1 μM.
T1 construct: followed by purified LFA-1 (in buffer of 50 mM triethylamine, 150 mM NaCl, 1% beta octylglucoside)
T1 sequence (P20701 26-1170): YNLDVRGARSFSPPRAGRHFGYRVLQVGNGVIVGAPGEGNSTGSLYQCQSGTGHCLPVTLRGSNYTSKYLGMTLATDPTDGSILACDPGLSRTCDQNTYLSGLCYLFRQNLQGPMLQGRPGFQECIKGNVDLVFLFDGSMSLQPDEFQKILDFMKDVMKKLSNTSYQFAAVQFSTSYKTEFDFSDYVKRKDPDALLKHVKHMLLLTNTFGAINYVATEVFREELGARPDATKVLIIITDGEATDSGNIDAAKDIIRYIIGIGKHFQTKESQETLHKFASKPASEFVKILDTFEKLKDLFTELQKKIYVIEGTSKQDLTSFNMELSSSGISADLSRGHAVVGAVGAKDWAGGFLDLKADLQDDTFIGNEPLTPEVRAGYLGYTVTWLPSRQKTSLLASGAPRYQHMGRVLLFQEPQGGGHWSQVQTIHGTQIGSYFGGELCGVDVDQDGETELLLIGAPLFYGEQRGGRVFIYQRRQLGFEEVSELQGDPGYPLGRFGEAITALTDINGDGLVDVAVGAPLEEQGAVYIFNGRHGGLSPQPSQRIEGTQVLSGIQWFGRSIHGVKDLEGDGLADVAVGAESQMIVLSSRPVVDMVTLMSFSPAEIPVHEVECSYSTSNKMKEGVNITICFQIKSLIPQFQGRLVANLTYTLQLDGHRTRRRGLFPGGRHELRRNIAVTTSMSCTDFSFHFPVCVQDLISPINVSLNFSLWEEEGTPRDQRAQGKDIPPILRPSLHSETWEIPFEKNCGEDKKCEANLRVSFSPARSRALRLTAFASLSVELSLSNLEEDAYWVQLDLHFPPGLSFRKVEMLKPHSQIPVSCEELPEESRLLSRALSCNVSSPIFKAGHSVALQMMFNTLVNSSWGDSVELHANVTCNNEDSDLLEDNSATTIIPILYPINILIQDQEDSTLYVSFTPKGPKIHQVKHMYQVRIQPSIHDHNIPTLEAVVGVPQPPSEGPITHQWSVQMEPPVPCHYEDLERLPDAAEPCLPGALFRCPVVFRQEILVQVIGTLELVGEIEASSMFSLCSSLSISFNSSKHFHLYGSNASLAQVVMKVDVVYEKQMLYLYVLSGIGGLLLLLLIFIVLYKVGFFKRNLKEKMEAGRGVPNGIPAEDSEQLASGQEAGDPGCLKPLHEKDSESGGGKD
T1 sequence (P05107 23-769 partner): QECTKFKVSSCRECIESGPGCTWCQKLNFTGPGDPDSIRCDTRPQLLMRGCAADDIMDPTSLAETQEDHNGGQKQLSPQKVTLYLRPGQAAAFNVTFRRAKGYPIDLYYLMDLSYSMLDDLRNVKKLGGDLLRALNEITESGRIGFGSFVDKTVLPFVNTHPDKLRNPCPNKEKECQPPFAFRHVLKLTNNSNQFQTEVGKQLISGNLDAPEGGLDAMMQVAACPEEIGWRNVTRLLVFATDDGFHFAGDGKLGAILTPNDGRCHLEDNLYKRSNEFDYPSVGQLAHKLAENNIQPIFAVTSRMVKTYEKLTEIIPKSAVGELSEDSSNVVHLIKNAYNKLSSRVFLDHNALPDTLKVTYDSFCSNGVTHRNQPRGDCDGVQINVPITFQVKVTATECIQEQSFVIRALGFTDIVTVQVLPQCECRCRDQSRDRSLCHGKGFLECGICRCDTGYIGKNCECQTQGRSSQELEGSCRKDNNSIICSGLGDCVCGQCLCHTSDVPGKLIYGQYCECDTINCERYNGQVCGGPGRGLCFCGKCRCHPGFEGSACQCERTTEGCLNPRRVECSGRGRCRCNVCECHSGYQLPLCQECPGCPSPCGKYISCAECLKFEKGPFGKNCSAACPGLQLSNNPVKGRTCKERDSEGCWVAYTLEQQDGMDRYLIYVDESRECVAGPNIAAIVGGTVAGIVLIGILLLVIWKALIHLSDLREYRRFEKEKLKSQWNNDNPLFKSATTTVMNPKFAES
Text: Assay to Determine Inhibition of LFA-1 Binding to ICAM-1
This assay protocol is designed to study the direct antagonism, by a test compound, of the interaction of ICAM-1 with the Leukointegrin CD18/CD11a (LFA-1).
The LFA-1/Biotin-sICAM-1 molecular assay measures the ability of test compounds to inhibit binding of LFA-1 to Biotinylated-sICAM using AlphaScreen technology (Ref: Wilson, J, Rossi, C P, Carboni, S, Fremaux, C, Perrin, D, Soto, C, Kosco-Vilbois, M, and Scheer, A: A Homogeneous 384-Well High-Throughput Binding Assay for a TNF Receptor Using Alphascreen Technology. J Biomol Screen 2003; 8:522-532) that uses TS2/4(anti-LFA-1)-custom conjugated AlphaLisa acceptor beads and streptavidin-coated donor beads from PerkinElmer. The assay was performed in white OptiPlates-384 in a volume of 60 μL using assay buffer (Dulbecco's PBS containing calcium and magnesium, 2 mM MgCl2, 0.1 mM PMSF, 0.1% BSA, pH 7.1). To each well, Biotin-sICAM was added followed by purified LFA-1 (in buffer of 50 mM triethylamine, 150 mM NaCl, 1% beta octylglucoside, 2 mM MgCl2 neutralized to pH with 1M Tris-HCl, pH 7.5). For compound testing, compound was added in 5 uL to the above in 25 uL. LFA-1 and Biotin-sICAM-1 were used at concentrations that would yield a signal to background ratio of 8-10. The highest concentration of compound was 1 μM in 1% DMSO. Positive controls were wells without compound containing LFA-1, while blanks were wells without both compound and LFA-1. Plates were mixed and incubated at 37° C. for 90 minutes. This was followed by addition of 15 μL/well TS2/4-conjugated acceptor beads diluted in PBS containing 0.1% BSA for a final concentration of 10 μg/mL. The plates were mixed and incubated in the dark for 30 minutes at room temperature followed by addition of 15 μL/well streptavidin-coated donor beads diluted in PBS containing 0.1% BSA at a final concentration of 15 μg/mL. The plates were mixed and incubated in the dark for 60 minutes at room temperature and then read on an EnVision Multilabel Reader using AlphaScreen 384-well OptiPlate protocol.

Q: For `Cn1cc(-c2cnc(C3(NC(=O)C4(NC(=O)c5cnc6n5[C@](C)(Cc5ccc(C#N)cc5)C(=O)N6c5cc(Cl)c(F)c(Cl)c5)CC4)CC3)nc2)cn1` [Compound 31], which IC50 is on record?
A: Its IC50 is 0.51 nM.

Q: How did the IC50 turn out when `Cn1cc(-c2ccc(C3(NC(=O)C4(NC(=O)c5cnc6n5[C@](C)(Cc5ccc(Br)cc5)C(=O)N6c5cc(Cl)cc(Cl)c5)CC4)CC3)nc2)cn1` [Compound 75] was run?
A: Its IC50 is 1.2 nM.

Q: How did the IC50 turn out when `Cc1nn(C)cc1-c1ccc(C2(NC(=O)[C@H](CO)NC(=O)c3cnc4n3[C@](C)(Cc3ccc(C#N)cc3)C(=O)N4c3cc(Cl)c(F)c(Cl)c3)CC2)nc1` [Compound 154] was run?
A: Its IC50 is 0.76 nM.

Q: Which IC50 does the source give for `C[C@@]1(Cc2ccc(C#N)cc2)C(=O)N(c2cc(Cl)cc(Cl)c2)c2ncc(C(=O)NC3(C(=O)NC4(c5ccc(-c6cccc(CO)c6)cn5)CC4)CC3)n21` [Compound 143] here?
A: Its IC50 is 1.9 nM.

Q: For `C[C@@H](NC(=O)C1(NC(=O)c2cnc3n2[C@](C)(Cc2ccc(C#N)cc2)C(=O)N3c2cc(Cl)c(F)c(Cl)c2)CC1)c1ccc(-c2ccc(CO)nc2)cn1` [Compound 65], which IC50 is on record?
A: Its IC50 is 0.53 nM.

Q: For `C[C@@]1(Cc2ccc(C#N)cc2)C(=O)N(c2cc(Cl)cc(Cl)c2)c2ncc(C(=O)NC3(C(=O)NC4(c5ccc(-c6cccc(C(=O)O)c6)cn5)CC4)CC3)n21` [Compound 52], which IC50 is on record?
A: The IC50 was 0.72 nM.

Q: `C[C@@]1(Cc2ccc(C#N)cc2)C(=O)N(c2cc(Cl)c(F)c(Cl)c2)c2ncc(C(=O)NC3(C(=O)NC4(c5ccc(-c6ccc(CO)cc6)nn5)CC4)CC3)n21` [Compound 37] was tested. Which IC50 did it give?
A: Its IC50 is 0.89 nM.

Q: `Cc1n[nH]c(C)c1-c1ccc(C2(NC(=O)C3(NC(=O)c4cnc5n4[C@](C)(Cc4ccc(C#N)cc4)C(=O)N5c4cc(Cl)c(F)c(Cl)c4)CC3)CC2)nc1` [Compound 157] was tested. Which IC50 did it give?
A: The IC50 was 0.91 nM.

Q: How did the IC50 turn out when `C[C@H](NC(=O)c1cnc2n1[C@](C)(Cc1ccc(C#N)cc1)C(=O)N2c1cc(Cl)c(F)c(Cl)c1)C(=O)NC1(c2ccc(-c3cnn(C)c3)cn2)CC1` [Compound 88] was run?
A: The IC50 was 0.89 nM.

Q: For `Cc1nn(C)cc1-c1ccc(C2(NC(=O)[C@@H](NC(=O)c3cnc4n3[C@](C)(Cc3ccc(C#N)cc3)C(=O)N4c3cc(Cl)c(F)c(Cl)c3)[C@@H](C)O)CC2)nc1` [Compound 155], which IC50 is on record?
A: The IC50 was 0.56 nM.
